What was measured:
advanced solid tumours = experiment: Solid tumour study: tumour response (RECIST v.1.1); format: in vivo, human; conditions: for Best response: CR / Best response: Death / Best response: Not evaluable / Best response: Partial response / Best response: Progression / Best response: Stable disease ≥6 weeks: RECIST criteria
Experimental: In the solid tumour study, responses were evaluated using RECIST v.1.1. Contrast-enhanced CTs of the chest, abdomen, pelvis and neck were performed at screening (≤28 days before the start of study treatment), every 6 weeks (±1 week) up to 12 weeks, and then every 12 weeks (±1 week) until discontinuation of study treatment or withdrawal of consent, starting from Day 1 of Cycle 1.

pBAD S112 = experiment: PD: phosphorylated BAD at S112 by MesoScale Discovery ELISA, AML study; format: in vivo, human
Experimental: For AZD1208 PD evaluations, bone marrow aspirates were collected (pretreatment and Cycle 1, Day 1, 2–6 h following administration of AZD1208) and peripheral blood samples were collected (pretreatment on Cycle 1, Day 1; and on-treatment at Cycle 1, Day 1 at 3, 6 and 24 h post-dose; Cycle 1, Day 14 at pre-dose, 3 and 6 h post-dose). Mononuclear cells were isolated, and protein lysates prepared, for subsequent analysis of phosphorylated BAD at S112 by MesoScale Discovery ELISA and phosphorylation of 4E-BP1 at S65 by NanoPro immunoassay [unpublished data: McEachern et al. 2018, manuscript in preparation]. Samples were considered evaluable when the baseline biomarker levels were above the background signal (as defined by buffer-only negative control samples) and within the linear range of assay. Additionally, only blood samples containing detectable blasts were considered for analysis.

SMILES: N[C@@H]1CCCN(c2c(/C=C3\SC(=O)NC3=O)cccc2-c2ccccc2)C1 [AZD1208]
- Discontinued study treatment due to disease progression, patients (advanced solid tumours; 35 patients): 65.7%
- Best response: CR (advanced solid tumours; 120 mg, n=3): 0 n (%)
- Best response: Death (advanced solid tumours; 120 mg, n=3): 0 n (%)
- Best response: Not evaluable (advanced solid tumours; 120 mg, n=3): 0 n (%)
- Best response: Partial response (advanced solid tumours; 120 mg, n=3): 0 n (%)
- Best response: Progression (advanced solid tumours; 120 mg, n=3): 1 (33.3) n (%)
- Best response: Stable disease ≥6 weeks (advanced solid tumours; 120 mg, n=3): 2 (66.7) n (%)
- Best response: CR (advanced solid tumours; 240 mg, n=7): 0 n (%)
- Best response: Death (advanced solid tumours; 240 mg, n=7): 0 n (%)
- Best response: Not evaluable (advanced solid tumours; 240 mg, n=7): 0 n (%)
- Best response: Partial response (advanced solid tumours; 240 mg, n=7): 0 n (%)
- Best response: Progression (advanced solid tumours; 240 mg, n=7): 2 (28.6) n (%)
- Best response: Stable disease ≥6 weeks (advanced solid tumours; 240 mg, n=7): 5 (71.4) n (%)
- Best response: CR (advanced solid tumours; 360 mg, n=5): 0 n (%)
- Best response: Death (advanced solid tumours; 360 mg, n=5): 0 n (%)
- Best response: Not evaluable (advanced solid tumours; 360 mg, n=5): 1 (20.0) n (%)
- Best response: Partial response (advanced solid tumours; 360 mg, n=5): 0 n (%)
- Best response: Progression (advanced solid tumours; 360 mg, n=5): 3 (60.0) n (%)
- Best response: Stable disease ≥6 weeks (advanced solid tumours; 360 mg, n=5): 1 (20.0) n (%)
- Best response: CR (advanced solid tumours; 540 mg, n=7): 0 n (%)
- Best response: Death (advanced solid tumours; 540 mg, n=7): 0 n (%)
- Best response: Not evaluable (advanced solid tumours; 540 mg, n=7): 1 (14.3) n (%)
- Best response: Partial response (advanced solid tumours; 540 mg, n=7): 0 n (%)
- Best response: Progression (advanced solid tumours; 540 mg, n=7): 3 (42.9) n (%)
- Best response: Stable disease ≥6 weeks (advanced solid tumours; 540 mg, n=7): 3 (42.9) n (%)
- Best response: CR (advanced solid tumours; 700 mg, n=6): 0 n (%)
- Best response: Death (advanced solid tumours; 700 mg, n=6): 1 (16.7) n (%)
- Best response: Not evaluable (advanced solid tumours; 700 mg, n=6): 2 (33.3) n (%)
- Best response: Partial response (advanced solid tumours; 700 mg, n=6): 0 n (%)
- Best response: Progression (advanced solid tumours; 700 mg, n=6): 3 (50.0) n (%)
- Best response: Stable disease ≥6 weeks (advanced solid tumours; 700 mg, n=6): 1 (16.7) n (%)
- Best response: CR (advanced solid tumours; 800 mg, n=5): 0 n (%)
- Best response: Death (advanced solid tumours; 800 mg, n=5): 0 n (%)
- Best response: Not evaluable (advanced solid tumours; 800 mg, n=5): 1 (20.0) n (%)
- Best response: Partial response (advanced solid tumours; 800 mg, n=5): 0 n (%)
- Best response: Progression (advanced solid tumours; 800 mg, n=5): 3 (60.0) n (%)
- Best response: Stable disease ≥6 weeks (advanced solid tumours; 800 mg, n=5): 1 (20.0) n (%)
- Best objective response: progression (advanced solid tumours; RECIST, all doses): 14 n
- Best objective response: stable disease for ≥6 weeks (advanced solid tumours; RECIST, all doses): 13 n
- Objective response rate (advanced solid tumours; RECIST, all doses): 0%
- Patients with stable disease at Week 12 (advanced solid tumours; five patients evaluable): four
- Prostate-specific antigen (PSA) levels (advanced solid tumours; one patient with prostate cancer): considerable reduction
- Patients with reductions in pBAD S112 (pBAD S112; evaluable bone marrow samples, single dose): 7/17
- Patients with ≥50% reduction from baseline of pBAD S112 (pBAD S112; peripheral blood, all dose levels): 9/10

— paper PMC5988656, “Phase I studies of AZD1208, a proviral integration Moloney virus kinase inhibitor in solid and haematological cancers” (British Journal of Cancer, 2018)
